Triple point temperature data for 1 compound are collected here from the NIST ThermoML archive (doi:10.1021/je100022w).

Numbers after ± are expanded uncertainties.

For this series the following is noted: Crystal 2; DSC.

In the case of `COC(=O)[C@H](c1ccccc1Cl)N1CCc2sccc2C1.O=S(=O)(O)O` [(S)-(+)-Clopidogrel hydrogen sulfate], the Triple point temperature is listed as 449.15 ± 1 K.
